Test results: ChEMBL document CHEMBL5370676, “KRAS-Degrading Compounds: A Novel Approach to Treat Cancer by Targeting Both Wild-Type and Mutated KRAS Forms” (ACS Med Chem Lett, 2023)

How the values were obtained:
Type in all cases: cell-based
[1] = biological target: T1, von Hippel-Lindau disease tumor suppressor/GTPase KRas (Homo sapiens, UniProt P01116+P40337, G12D); assay: PROTAC activity at VHL/N-terminal HiBit-tagged KRAS G12D mutant (unknown origin) in human GP5d cells assessed as induction of KRAS G12D protein degradation incubated for 18 hrs by Nano-Gio HiBiT assay
[2] = system: von Hippel-Lindau disease tumor suppressor/GTPase KRas (Homo sapiens), P01116+P40337 [G12D]; assay: PROTAC activity at VHL/HiBit-tagged KRAS G12D mutant (unknown origin) in human GP5d cells assessed as induction of KRAS G12D protein degradation incubated for 18 hrs by Nano-Gio HiBiT assay relative control
[3] = system: von Hippel-Lindau disease tumor suppressor/GTPase KRas (Homo sapiens), P01116+P40337 [G12D]; assay: PROTAC activity at E3 ubiquitin ligase/N-terminal HiBit-tagged KRAS G12D mutant (unknown origin) in human GP5d cells assessed as induction of KRAS G12D protein degradation incubated for 18 hrs by Nano-Gio HiBiT assay relative to control
[4] = biological target: T1, von Hippel-Lindau disease tumor suppressor/GTPase KRas; assay: PROTAC activity at E3 ubiquitin ligase/N-terminal HiBit-tagged KRAS G12D mutant (unknown origin) in human GP5d cells assessed as induction of KRAS G12D protein degradation incubated for 18 hrs by Nano-Gio HiBiT assay

Chain of von Hippel-Lindau disease tumor suppressor/GTPase KRas (Homo sapiens), P01116+P40337 [G12D] (P01116 whole entry G12D): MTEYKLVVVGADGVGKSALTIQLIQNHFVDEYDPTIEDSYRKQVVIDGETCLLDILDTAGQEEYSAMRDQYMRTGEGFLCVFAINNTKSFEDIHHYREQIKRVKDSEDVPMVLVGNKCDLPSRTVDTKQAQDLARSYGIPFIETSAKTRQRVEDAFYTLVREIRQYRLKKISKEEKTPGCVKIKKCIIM
Chain of von Hippel-Lindau disease tumor suppressor/GTPase KRas (Homo sapiens), P01116+P40337 [G12D] (P40337 whole entry partner): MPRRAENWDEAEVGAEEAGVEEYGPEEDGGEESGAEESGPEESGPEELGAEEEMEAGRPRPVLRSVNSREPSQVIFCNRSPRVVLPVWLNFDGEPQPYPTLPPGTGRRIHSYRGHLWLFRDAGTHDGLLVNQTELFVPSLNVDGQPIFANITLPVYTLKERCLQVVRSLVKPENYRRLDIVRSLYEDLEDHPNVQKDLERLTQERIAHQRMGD
T1 sequence (P01116 whole entry G12D, stated change not applied): as the sequence (P01116 whole entry G12D) above
T1 sequence (P40337 whole entry, stated change not applied): as the sequence (P40337 whole entry partner) above

Compound Cc1ncsc1-c1ccc(CNC(=O)[C@@H]2C[C@@H](O)CN2C(=O)C(c2cc(OCCCCN3CCCN(c4nccc(-c5noc([C@@]6(C)CCCc7sc(N)c(C#N)c76)n5)n4)[C@@H](C)C3)no2)C(C)C)cc1F (some centres undefined) has a DC50 [1] of 6.5 nM and an Emax [2] of 92%.
For Cc1ncsc1-c1ccc(CNC(=O)[C@@H]2C[C@@H](O)CN2C(=O)C(c2cc(OCCCCN3CCCN(c4nccc(-c5noc([C@@]6(C)CCCc7sc(N)c(C#N)c76)n5)n4)[C@@H](C)C3)no2)C(C)C)cc1 (some centres undefined), the DC50 [1] was 2.7 nM and the Emax [2] was 91%.
In the case of Cc1ncsc1-c1ccc(CNC(=O)[C@@H]2C[C@@H](O)CN2C(=O)C(c2cc(OCCCCN3CCCN(c4nccc(-c5cc([C@@]6(C)CCCc7sc(N)c(C#N)c76)on5)n4)[C@@H](C)C3)no2)C(C)C)cc1 (some centres undefined), the DC50 [1] is reported as 4.3 nM and the Emax [2] is reported as 94%.
Work on Cc1ncsc1-c1ccc(CNC(=O)[C@@H]2C[C@@H](O)CN2C(=O)C(c2cc(OCCCN3CCCN(c4nccc(-c5noc([C@@]6(C)CCCc7sc(N)c(C#N)c76)n5)n4)[C@@H](C)C3)no2)C(C)C)cc1 (some centres undefined) yielded a DC50 [1] of 6.4 nM and an Emax [2] of 94%.
Cc1ncsc1-c1ccc([C@@H](NC(=O)[C@H]2C[C@H](O)CN2C(=O)[C@@H](C(C)C)n2cc(OCCCN3CCCN(c4nccc(-c5noc([C@@]6(C)CCCc7sc(N)c(C#N)c76)n5)n4)[C@@H](C)C3)nn2)[C@@H](O)C(C)C)cc1 gave a DC50 [1] of 1.2 nM and an Emax [2] of 93%.
In the case of Cc1ncsc1-c1ccc([C@H](NC(=O)[C@@H]2C[C@@H](O)CN2C(=O)[C@H](C(C)C)n2cc(OCCCCN3CCCN(c4nccc(-c5noc([C@@]6(C)CCCc7sc(N)c(C#N)c76)n5)n4)[C@@H](C)C3)nn2)[C@H](C)O)cc1 (single isomer, unassigned), the DC50 [1] is reported as 1.6 nM and the Emax [2] is reported as 94%.
Compound Cc1ncsc1-c1ccc(CNC(=O)[C@@H]2C[C@@H](O)CN2C(=O)C(c2cc(OCCCCN3CCCN(c4nccc(-c5cc([C@@]6(C)CCCc7sc(N)c(C#N)c76)no5)n4)[C@@H](C)C3)no2)C(C)C)cc1 (single isomer, unassigned) has a DC50 [1] of 8.9 nM and an Emax [2] of 92%.
For CC(C)C(C(=O)N1C[C@H](O)C[C@H]1C(=O)NCc1ccc(-n2ccnc2)cc1)c1cc(OCCCCN2CCCN(c3nccc(-c4noc([C@@]5(C)CCCc6sc(N)c(C#N)c65)n4)n3)[C@@H](C)C2)no1 (single isomer, unassigned), the Emax [3] was 93% and the DC50 [4] was 6.7 nM.
In the case of CC(C)C(C(=O)N1C[C@H](O)C[C@H]1C(=O)NCc1ccc(C#N)cc1)c1cc(OCCCCN2CCCN(c3nccc(-c4noc([C@@]5(C)CCCc6sc(N)c(C#N)c65)n4)n3)[C@@H](C)C2)no1 (single isomer, unassigned), the Emax [3] is reported as 91% and the DC50 [4] is reported as 3.9 nM.
In the case of Cc1ncsc1-c1ccc([C@H](CO)NC(=O)[C@@H]2C[C@@H](O)CN2C(=O)[C@H](C(C)C)n2cc(OCCCC(C)N3CCCN(c4nccc(-c5noc([C@@]6(C)CCCc7sc(N)c(C#N)c76)n5)n4)[C@@H](C)C3)nn2)cc1 (single isomer, unassigned), the DC50 [1] is reported as 1.4 nM and the Emax [2] is reported as 94%.
Compound Cc1ncsc1-c1ccc([C@H](C)NC(=O)[C@@H]2C[C@@H](O)CN2C(=O)C(C(C)C)n2cc(OCCCCN3CCCN(c4nccc(-c5noc([C@@]6(C)CCCc7sc(N)c(C#N)c76)n5)n4)[C@@H](C)C3)nn2)cc1 (single isomer, unassigned) has a DC50 [1] of 1.5 nM and an Emax [2] of 93%.
CC(C)C(C(=O)N1C[C@H](O)C[C@H]1C(=O)NCc1ccc(-n2cncn2)cc1)c1cc(OCCCCN2CCCN(c3nccc(-c4noc([C@@]5(C)CCCc6sc(N)c(C#N)c65)n4)n3)[C@@H](C)C2)no1 (single isomer, unassigned) showed an Emax [3] of 93% and a DC50 [4] of 3.3 nM.
